“Also recorded” adds a separate entry of the source. Where two headings read alike, the source gives them in different places.
Columns and labels:
[1] = test system: SARS-CoV-2 (USA_WA01/2020) in Vero E6 cells; assay: Antiviral assay in SARS-CoV-2-infected Vero E6 cells; format: cell-based; conditions: read-out: Antiviral EC50, MOI 0.01, 72 h, cell proliferation
[2] = biological target: T1, SARS-CoV-2 M^pro (Severe acute respiratory syndrome coronavirus 2, UniProt P0DTD1); assay: Preincubation dilution experiment; format: biochemical
[3] = biological target: T1, SARS-CoV-2 M^pro; assay: Steady-state enzyme kinetics, inhibition mechanism; format: biochemical
[4] = test system: SARS-CoV-2 USA-WA1/2020 in human iPSC-derived lung organoids
[5] = 10 μM preincubation 30 min, 10× dilution

2-(4-Chlorophenyl)benzo[d][1,2]selenazol-3(2H)-one [Compound E15]
EC50 [1]: 11.2 ± 1.3 µM

O=c1c2ccccc2[se]n1-c1ccccc1 [Compound E01, 2-Phenylbenzo[d][1,2]selenazol-3(2H)-one, reference compound]
type of inhibition from preincubation dilution [2]: reversible covalent inhibitor
mechanism of inhibition [3]: likely competitive inhibitors

O=c1c2ccccc2[se]n1-c1ccc(C(F)(F)F)cc1 [Compound E04, 2-(4-(Trifluoromethyl)phenyl)benzo[d][1,2]selenazol-3(2H)-one]
type of inhibition from preincubation dilution [2, 5]: rapidly reversible inhibitor
mechanism of inhibition ([3]; 0.5-10 μM inhibitor, 1.5-30 μM substrate, global fit to mixed model): likely competitive inhibitors

COc1ccc(Cn2[se]c3ccccc3c2=O)c(OC)c1 [Compound E07, 2-(2,4-Dimethoxybenzyl)benzo[d][1,2]selenazol-3(2H)-one]
type of inhibition from preincubation dilution [2, 5]: reversible covalent inhibitor

O=c1c2ccccc2[se]n1-c1cccc(Cl)c1 [Compound E19, 2-(3-Chlorophenyl)benzo[d][1,2]selenazol-3(2H)-one]
type of inhibition from preincubation dilution [2, 5]: rapidly reversible inhibitor

O=c1c2ccccc2[se]n1-c1cc(Cl)cc(Cl)c1 [Compound E20, 2-(3,5-Dichlorophenyl)benzo[d][1,2]selenazol-3(2H)-one]
type of inhibition from preincubation dilution [2, 5]: reversible covalent inhibitor

O=c1c2ccccc2[se]n1-c1cccc(C(F)(F)F)c1 [Compound E24, 2-(3-(Trifluoromethyl)phenyl)benzo[d][1,2]selenazol-3(2H)-one]
reduction of viral RNA levels, intracellular fraction [4]: ~50%
reduction of viral RNA levels, supernatant fraction [4]: ~50%
toxicity toward the organoids ([4]; 5 μM, 72 h): no observable toxicity

N#Cc1cccc(-n2[se]c3ccccc3c2=O)c1 [Compound E25, 3-(3-Oxobenzo[d][1,2]selenazol-2(3H)-yl)benzonitrile]
type of inhibition from preincubation dilution [2, 5]: some recovery of the enzymatic activity but not a complete recovery; also recorded: reversible covalent inhibitor

Reference: paper PMC8491550 (Journal of Medicinal Chemistry, 2021)
